We go through four molecules from ChEMBL document CHEMBL1201862, “PubChem BioAssay data set” (2004).

Active and inactive are the calls of the source. For most assays here, no stated cut-off is given here; in the data, actives have a measured EC50 and inactives only a lower limit.

Assay [1] can be described thus: Luminescence Cell-Based Dose Response HTS to Identify Inhibitors of Luciferase Translation or Activity in H4-C Neuroglioblastoma Cells. [Related pubchem assays: 1813 (Primary HTS), 1827 (Project Summary)]. In kind it is functional.
The nature of assay [2]: Luminescence Cell-Based Dose Response HTS to Identify Activators of Luciferase Translation or Activity in H4-C Neuroglioblastoma Cells. [Related pubchem assays: 1829 (Project Summary), 1814 (Primary HTS)]. It is filed as functional.
Assay [3] can be described thus: inhibitors of firefly luciferase expression or activity, dose response, H4 neuroglioma cells, luminescence (AID 1990). In kind it is functional, cell-based.
Assay [4] in a line: luciferase reporter signal reduction – luminescence, H4-C neuroglioblastoma cells, dose response (AID 2458).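 Further: H4 neuroglioblastoma cells stably carrying a luciferase reporter gene fusion.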 It is filed as functional, cell-based. A general note: In a reporter assay the amount or activity of a reporter protein is the signal.
Assay [5] can be described thus: Luminescence Cell-Based Dose Retest to Confirm Activators of 5'UTR Stem-Loop Driven Alpha-Synuclein mRNA Translation in H4 Neuroglioblastoma Cells. [Related pubchem assays (depositor defined):AID1813, AID1829]. In kind it is functional.
Assay [6] can be described thus: Luminescence Cell-Based Dose Response HTS to Identify Activators of 5'UTR Stem-Loop Driven Prion Protein mRNA Translation in H4-C Neuroglioblastoma Cells. [Related pubchem assays: 1829 (Project Summary), 1814 (Primary HTS)]. In kind it is functional.
A short description of assay [7]: Luminescence Cell-Based Dose HTS Response to Identify Inhibitors of 5'UTR Stem-Loop Driven Prion Protein mRNA Translation in H4-C Neuroglioblastoma Cells. [Related pubchem assays (depositor defined):AID1814, AID1827]. It is filed as functional.
The nature of a further assay: cells. In kind it is functional, cell-based.
Assay [8] can be described thus: Luminescence Cell-Based Dose Response HTS to Identify Inhibitors of 5'UTR Stem-Loop Driven Prion Protein mRNA Translation in H4 Neuroglioblastoma Cells. [Related pubchem assays: 1827 (Project Summary), 1813 (Primary HTS)]. It is filed as functional.
A short description of assay [9]: inhibitors of SNCA 5'UTR-driven reporter translation, confirmation, H4 neuroglioma cells, luminescence (AID 1988). It is filed as functional, cell-based.
Assay [10] concerns BJ. The assay can be described thus: cells. It is filed as functional, cell-based. The conditions noted are these: Homo sapiens.
Assay [11] can be described thus: Luminescence Cell-Based Dose Confirmation HTS to Identify Inhibitors of 5'UTR Stem-Loop Driven Alpha-Synuclein mRNA Translation in H4 Neuroglioblastoma Cells. [Related pubchem assays: 1827 (Project Summary), 1813 (Primary HTS)]. It is filed as functional.
The subject of assay [12] is BJ. The assay can be described thus: cytotoxicity toward BJ-TERT-LT-ST fibroblasts, dose response, cell-based, RAS-independent, luminescence (AID 1935).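 Further: BJ fibroblasts immortalized with TERT plus LT and ST oncogenes.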 It is filed as functional. The conditions noted are these: Homo sapiens.
Assay [13] in a line: cytotoxicity toward DRD oncogenic fibroblasts, dose response, cell-based, non-viral oncogenic, luminescence (AID 1934). In kind it is functional. The conditions noted are these: Homo sapiens.
Assay [14] in a line: inhibitors of SNCA 5'UTR-driven translation, confirmation, luminescence, H4 neuroglioblastoma cells, dose confirmation (AID 2454).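 Further: H4 neuroglioblastoma cells carrying an alpha-synuclein 5'UTR luciferase reporter; potency for inhibition of the luciferase signal.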 In kind it is functional, cell-based.
The nature of assay [15]: cytotoxicity in HEK-293T cells, dose response, cytotoxicity control for TCR NF-kB inhibitor project, luminescence, T-cell screen hits (AID 489026).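 Further: cells exposed to compound about 14 hours before the viability readout.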 In kind it is functional, cell-based.
The nature of assay [16]: Luminescence Cell-Based Dose Response to Identify Activators of 5'UTR Stem-Loop Driven Prion Protein mRNA Translation in H4-C Neuroglioblastoma Cells. [Related pubchem assays: 1829 (Project Summary), 1814 (Primary HTS)]. It is filed as functional.
Assay [17] is described as follows: Luminescence Cell-Based Dose Response HTS to Identify Activators of Luciferase Translation or Activity in H4 […] Cells. [Related pubchem assays: 1829 (Project Summary), 1814 (Primary HTS)]. It is filed as functional.
A further assay has as its system H4. Kind of assay: Luminescence Cell-Based Dose Response HTS to Identify Activators of 5'UTR Stem-Loop Driven Prion Protein mRNA Translation in H4 Neuroglioblastoma Cells. [Related pubchem assays: 1829 (Project Summary), 1814 (Primary HTS)]. It is filed as functional. Conditions: Homo sapiens.
A short description of assay [18]: Luminescence Cell-Based Dose Response to Identify Activators of Luciferase Translation or Activity in H4-C Neuroglioblastoma Cells. [Related pubchem assays: 1829 (Project Summary), 1814 (Primary HTS)]. In kind it is functional.
Assay [19] can be described thus: Luminescence Cell-Based Dose Confirmation to Identify Activators of 5'UTR Stem-Loop Driven Alpha-Synuclein mRNA Translation in H4 Neuroglioblastoma Cells. [Related pubchem assays: 1829 (Project Summary), 1814 (Primary HTS)]. In kind it is functional.
For assay [20], the target named is Mitogen-activated protein kinase 10 (Homo sapiens, UniProt P53779). The assay can be described thus: Dose response biochemical screening assay for inhibitors of c-Jun N-Terminal Kinase 3 (JNK3). [Related pubchem assays: 746 ].
Sequence of Mitogen-activated protein kinase 10 (P53779 whole entry): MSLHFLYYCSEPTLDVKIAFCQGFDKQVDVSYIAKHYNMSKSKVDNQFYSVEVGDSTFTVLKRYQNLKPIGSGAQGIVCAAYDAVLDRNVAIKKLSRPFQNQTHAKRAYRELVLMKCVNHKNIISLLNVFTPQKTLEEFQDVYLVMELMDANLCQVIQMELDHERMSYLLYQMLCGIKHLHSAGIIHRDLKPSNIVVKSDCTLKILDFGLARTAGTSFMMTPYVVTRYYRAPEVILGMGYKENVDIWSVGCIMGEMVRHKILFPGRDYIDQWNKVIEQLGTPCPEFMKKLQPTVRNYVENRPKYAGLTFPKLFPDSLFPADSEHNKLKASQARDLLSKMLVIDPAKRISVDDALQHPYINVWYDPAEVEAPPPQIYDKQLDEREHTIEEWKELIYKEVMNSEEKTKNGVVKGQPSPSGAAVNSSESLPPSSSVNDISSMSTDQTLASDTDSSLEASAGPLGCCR
Assay [21] addresses Intestinal-type alkaline phosphatase (Mus musculus, UniProt P24822). Kind of assay: PubChem AID 488785. In kind it is functional.
For assay [22], the target named is T1, Alkaline phosphatase, tissue-nonspecific isozyme (Homo sapiens, UniProt P05186).
T1 sequence (P05186 whole entry): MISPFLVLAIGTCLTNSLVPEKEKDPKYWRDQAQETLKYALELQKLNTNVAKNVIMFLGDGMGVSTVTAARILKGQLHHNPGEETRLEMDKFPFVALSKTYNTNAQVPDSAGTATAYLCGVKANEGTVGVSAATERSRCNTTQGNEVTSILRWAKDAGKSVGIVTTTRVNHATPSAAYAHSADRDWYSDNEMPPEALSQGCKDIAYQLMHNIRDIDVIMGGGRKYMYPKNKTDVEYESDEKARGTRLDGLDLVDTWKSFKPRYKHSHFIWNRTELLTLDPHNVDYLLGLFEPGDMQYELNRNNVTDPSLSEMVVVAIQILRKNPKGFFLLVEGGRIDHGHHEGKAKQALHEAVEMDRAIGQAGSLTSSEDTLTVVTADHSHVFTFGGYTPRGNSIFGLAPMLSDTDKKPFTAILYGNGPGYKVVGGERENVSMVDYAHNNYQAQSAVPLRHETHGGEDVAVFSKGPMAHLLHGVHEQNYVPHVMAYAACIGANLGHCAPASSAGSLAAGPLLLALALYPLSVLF
Kind of assay: TNAP enzyme inhibition by screening hits, dose response, selectivity assay for mouse IAP inhibitor project, biochemical, human TNAP, uHTS hits (AID 488906). In kind it is functional.

Assay [23] deals with Intestinal-type alkaline phosphatase (Homo sapiens, UniProt P09923). Kind of assay: inhibition of human intestinal alkaline phosphatase – biochemical, dose response (AID 488876). In kind it is functional.
Sequence of Intestinal-type alkaline phosphatase (Homo sapiens, UniProt P09923) (P09923 whole entry): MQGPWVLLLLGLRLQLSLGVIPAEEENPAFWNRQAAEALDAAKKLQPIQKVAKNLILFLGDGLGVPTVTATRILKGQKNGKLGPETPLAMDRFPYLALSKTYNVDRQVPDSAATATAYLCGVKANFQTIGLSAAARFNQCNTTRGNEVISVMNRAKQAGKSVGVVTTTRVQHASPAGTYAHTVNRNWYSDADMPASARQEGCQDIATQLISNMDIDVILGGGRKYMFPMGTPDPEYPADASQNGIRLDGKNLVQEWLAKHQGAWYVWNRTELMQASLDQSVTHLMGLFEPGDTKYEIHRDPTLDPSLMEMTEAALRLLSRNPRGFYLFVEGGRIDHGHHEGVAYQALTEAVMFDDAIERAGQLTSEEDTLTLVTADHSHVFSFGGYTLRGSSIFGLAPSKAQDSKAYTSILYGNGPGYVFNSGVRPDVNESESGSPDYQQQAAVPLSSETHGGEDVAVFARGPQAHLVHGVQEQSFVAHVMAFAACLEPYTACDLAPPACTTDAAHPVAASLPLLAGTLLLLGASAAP
Assay [24] relates to BJ. Kind of assay: cytotoxicity toward BJ-TERT fibroblasts, dose response, cell-based, RAS-independent, luminescence (AID 1933). It is filed as functional. Conditions: Homo sapiens.
The next assay addresses CAAX prenyl protease 2 (Saccharomyces cerevisiae S288c, UniProt Q03530). In kind it is biochemical.
Assay [25] can be described thus: mammalian cell cytotoxicity, dose response, cytotoxicity control, plate reader, cherry-pick samples (AID 504397). It is filed as functional, cell-based.
Assay [26] deals with T2, SUMO-activating enzyme (Homo sapiens, UniProt Q9UBT2). The assay can be described thus: SUMOylation inhibitor hit validation, confirmation, SUMOylation inhibitor project, biochemical, AlphaScreen (AID 2018). In kind it is functional. For orientation: In Alpha technology, singlet oxygen from a donor bead excites a nearby acceptor bead.
T2 sequence (Q9UBE0 whole entry): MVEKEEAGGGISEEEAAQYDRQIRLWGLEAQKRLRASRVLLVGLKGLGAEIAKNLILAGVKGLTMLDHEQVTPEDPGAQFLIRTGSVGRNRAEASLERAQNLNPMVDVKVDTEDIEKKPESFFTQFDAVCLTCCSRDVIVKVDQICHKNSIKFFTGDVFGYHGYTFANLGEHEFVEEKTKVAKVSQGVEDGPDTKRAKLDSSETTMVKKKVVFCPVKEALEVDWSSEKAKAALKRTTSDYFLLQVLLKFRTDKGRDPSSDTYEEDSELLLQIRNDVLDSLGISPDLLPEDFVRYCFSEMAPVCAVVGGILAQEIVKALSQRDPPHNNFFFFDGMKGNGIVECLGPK
T2 sequence (Q9UBT2 whole entry): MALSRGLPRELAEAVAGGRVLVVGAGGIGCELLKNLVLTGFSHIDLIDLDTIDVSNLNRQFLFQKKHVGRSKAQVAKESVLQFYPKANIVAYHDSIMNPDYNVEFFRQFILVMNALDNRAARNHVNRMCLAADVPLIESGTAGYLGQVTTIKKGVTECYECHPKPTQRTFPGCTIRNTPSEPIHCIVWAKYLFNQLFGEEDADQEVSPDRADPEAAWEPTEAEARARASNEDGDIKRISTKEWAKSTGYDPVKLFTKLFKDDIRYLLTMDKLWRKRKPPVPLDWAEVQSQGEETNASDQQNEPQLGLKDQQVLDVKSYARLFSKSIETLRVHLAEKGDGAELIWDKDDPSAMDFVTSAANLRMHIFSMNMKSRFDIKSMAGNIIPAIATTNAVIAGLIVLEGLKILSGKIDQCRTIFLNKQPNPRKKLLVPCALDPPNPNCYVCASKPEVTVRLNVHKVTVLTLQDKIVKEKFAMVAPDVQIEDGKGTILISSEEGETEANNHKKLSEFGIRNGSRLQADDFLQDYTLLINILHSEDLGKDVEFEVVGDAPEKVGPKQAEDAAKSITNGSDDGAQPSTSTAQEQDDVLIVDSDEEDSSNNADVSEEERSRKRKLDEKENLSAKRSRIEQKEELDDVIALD
Assay [27] concerns the target T2, SUMO-activating enzyme. Kind of assay: inhibitors of in vitro SUMOylation cascade, primary screen, biochemical, HTRF, uHTS (AID 2006). In kind it is protein-complex assay. In general terms: Time-resolved FRET reads energy transfer from a long-lived donor to a nearby acceptor.

Sequence of CAAX prenyl protease 2 (Q03530 whole entry): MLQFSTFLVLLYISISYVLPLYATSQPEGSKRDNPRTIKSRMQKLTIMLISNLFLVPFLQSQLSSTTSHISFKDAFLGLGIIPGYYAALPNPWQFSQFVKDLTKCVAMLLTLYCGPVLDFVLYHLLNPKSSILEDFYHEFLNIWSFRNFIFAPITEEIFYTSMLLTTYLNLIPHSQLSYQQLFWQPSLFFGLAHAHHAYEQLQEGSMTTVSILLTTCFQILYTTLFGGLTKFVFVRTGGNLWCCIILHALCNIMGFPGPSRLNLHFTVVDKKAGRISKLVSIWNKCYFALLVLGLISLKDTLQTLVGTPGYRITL
Sequence of Intestinal-type alkaline phosphatase (Mus musculus, UniProt P24822) (P24822 whole entry): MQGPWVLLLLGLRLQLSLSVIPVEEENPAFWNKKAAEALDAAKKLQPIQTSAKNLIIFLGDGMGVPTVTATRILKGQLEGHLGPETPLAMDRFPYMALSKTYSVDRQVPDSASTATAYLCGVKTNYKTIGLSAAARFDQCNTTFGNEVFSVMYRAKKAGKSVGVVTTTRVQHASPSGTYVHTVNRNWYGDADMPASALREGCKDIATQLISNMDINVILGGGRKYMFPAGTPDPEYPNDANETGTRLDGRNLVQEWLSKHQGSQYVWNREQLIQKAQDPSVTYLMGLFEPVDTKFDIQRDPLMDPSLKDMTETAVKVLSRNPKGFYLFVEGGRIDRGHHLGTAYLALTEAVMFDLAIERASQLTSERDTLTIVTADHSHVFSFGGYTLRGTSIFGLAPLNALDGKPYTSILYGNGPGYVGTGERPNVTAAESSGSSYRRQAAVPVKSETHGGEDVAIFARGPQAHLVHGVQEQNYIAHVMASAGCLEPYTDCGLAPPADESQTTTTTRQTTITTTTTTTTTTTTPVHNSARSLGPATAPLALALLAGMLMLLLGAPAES

`COc1cccc(N2CCN(C(=O)c3ccc(C[S+]([O-])c4ccccc4C)o3)CC2)c1` (stereo not drawn): the EC50 in [1] was 0.946 µM (active); in [2], 0.946 µM (inconclusive); in assay [3] it was 7.05 µM (active); in assay [4], 1.06 µM (active); in assay [5], 22.5 µM (inconclusive); in assay [6] it was 0.325 µM (inconclusive). The EC50 was 0.325 µM (active) in assay [7]; 2.01 µM (active) in the assay “cells”; 9.12 µM (active) in assay [8]; < 0.1 µM (active) in [9]; 35 µM (active) with BJ [10]; 22.5 µM (active) in assay [11]. The 50% effective concentration (EC50) in the assay on BJ [12] was 1.2 µM (active); in assay [13], 1.59 µM (active); in assay [14], > 12 µM (not active). Further, in assay [15], the IC50 was > 80 µM (inactive).
`OCCCN1c2ccccc2Nc2nnc(-c3ccccc3)cc21`: the EC50 in assay [16] was 0.549 µM (active); in assay [17], < 0.1 µM (inconclusive); in the assay with H4, 1.97 µM (active); in [18], > 12 µM (not active); in [19], 0.424 µM (active). For the same molecule, the IC50 in assay [20] was > 31 µM (not active); in [21], 10.3 µM (active); in assay [22] it was > 100 µM (inactive); in [23] it was > 100 µM (inactive).
On to `Cc1cccc(OCCCN2C(=O)C(=O)c3cc(C)ccc32)c1`, for which the EC50 with BJ [24] is 5.08 µM (active); with BJ [10] it was > 150 µM (not active); in the assay on BJ [12], 11.1 µM (inconclusive); in assay [13] it was 25.9 µM (active). In addition, the concentration at half-maximal activity (AC50) on CAAX prenyl protease 2 was 2.77 µM (active); in assay [25], 42.4 µM (active).
On to `COc1cccc2c(SCC(=O)N/N=C/c3ccc(O)cc3O)cc(C)nc12`, for which the IC50 at SUMO-activating enzyme [26] was 3.17 µM (active); on SUMO-activating enzyme [27], 28.6 µM (active).

The term EC50 denotes the concentration giving half of the maximal effect. For orientation: IC50 means the point on the concentration scale where inhibition reaches its midpoint. By AC50 is commonly meant the concentration giving half of the maximal activity seen.
